Measured values published in publication PMC10337138 (Acta Neuropathologica Communications, 2023).

Key:
Conditions in all cases: 1 mM ATP; inhibitor
[1] = molecular target: FGR (Homo sapiens, UniProt P09769)
Protocol: (§1) Kinase selectivity panel Kinome profiling was conducted by AssayQuant Technologies (Marlboro, MA) using Sox chromophore technology and Sox-based peptide substrates developed for human kinases in a 384-well format. Compounds were tested at 1 µM in the presence of 1 mM ATP.

[2] = molecular target: CDK4/D3 (Homo sapiens, UniProt P11802)
Protocol: as §1

[3] = molecular target: ABL2 (Homo sapiens, UniProt P42684)
Protocol: as §1

[4] = molecular target: CDK6/D3 (Homo sapiens, UniProt Q00534)
Protocol: as §1

[5] = molecular target: T1, ZNF33A/ZAK (Homo sapiens, UniProt Q9NYL2)
T1 construct: gene MAP3K20
Protocol: as §1

[6] = molecular target: PRKAA2/AMPK211 (Homo sapiens, UniProt P54646)
Protocol: as §1

[7] = molecular target: T2, PDHK4 (Homo sapiens, UniProt Q16654)
T2 construct: gene PDK4
Protocol: as §1

[8] = molecular target: LIMK1 (Homo sapiens, UniProt P53667)
Protocol: as §1

[9] = molecular target: KSR2 (Homo sapiens, UniProt Q6VAB6)
Protocol: as §1

[10] = molecular target: NUAK1 (Homo sapiens, UniProt O60285)
Protocol: as §1

[11] = molecular target: CSK (Homo sapiens, UniProt P41240)
Protocol: as §1

[12] = molecular target: MYO3B (Homo sapiens, UniProt Q8WXR4)
Protocol: as §1

[13] = molecular target: RPS6KA4/MSK2 (Homo sapiens, UniProt O75676)
Protocol: as §1

[14] = molecular target: HCK (Homo sapiens, UniProt P08631)
Protocol: as §1

[15] = molecular target: TNIK (Homo sapiens, UniProt Q9UKE5)
Protocol: as §1

[16] = molecular target: TTK (Homo sapiens, UniProt P33981)
Protocol: as §1

[17] = molecular target: HASPIN (Homo sapiens, UniProt Q8TF76)
Protocol: as §1

[18] = molecular target: NEK1 (Homo sapiens, UniProt Q96PY6)
Protocol: as §1

[19] = molecular target: EIF2AK3/PEK (Homo sapiens, UniProt Q9NZJ5)
Protocol: as §1

[20] = molecular target: STK11/LKB1 (Homo sapiens, UniProt Q15831)
Protocol: as §1

[21] = molecular target: T3, FYNB (Homo sapiens, UniProt P06241)
T3 construct: gene FYN
Protocol: as §1

[22] = molecular target: NEK2 (Homo sapiens, UniProt P51955)
Protocol: as §1

[23] = molecular target: MYLK4 (Homo sapiens, UniProt Q86YV6)
Protocol: as §1

[24] = molecular target: NEK3 (Homo sapiens, UniProt P51956)
Protocol: as §1

[25] = molecular target: JAK1(JH1) (Homo sapiens, UniProt P23458)
Protocol: as §1

[26] = molecular target: RPS6KA1/RSK1 (Homo sapiens, UniProt Q15418)
Protocol: as §1

[27] = molecular target: T4, FYNA (Homo sapiens, UniProt P06241)
T4 construct: gene FYN
Protocol: as §1

[28] = molecular target: MAPK10/JNK3 (Homo sapiens, UniProt P53779)
Protocol: as §1

[29] = molecular target: CDK3/E1 (Homo sapiens, UniProt Q00526)
Protocol: as §1

[30] = molecular target: SRMS (Homo sapiens, UniProt Q9H3Y6)
Protocol: as §1

[31] = molecular target: GRK6 (Homo sapiens, UniProt P43250)
Protocol: as §1

[32] = molecular target: LATS2 (Homo sapiens, UniProt Q9NRM7)
Protocol: as §1

[33] = molecular target: NEK11 (Homo sapiens, UniProt Q8NG66)
Protocol: as §1

[34] = molecular target: TAOK2 (Homo sapiens, UniProt Q9UL54)
Protocol: as §1

[35] = molecular target: PRKG1 (Homo sapiens, UniProt Q13976)
Protocol: as §1

[36] = molecular target: RIPK1 (Homo sapiens, UniProt Q13546)
Protocol: as §1

[37] = molecular target: SNRK (Homo sapiens, UniProt Q9NRH2)
Protocol: as §1

[38] = molecular target: GSK3A (Homo sapiens, UniProt P49840)
Protocol: as §1

[39] = molecular target: MAP3K3 (Homo sapiens, UniProt Q99759)
Protocol: as §1

Chain of MYLK4 (Q86YV6 whole entry): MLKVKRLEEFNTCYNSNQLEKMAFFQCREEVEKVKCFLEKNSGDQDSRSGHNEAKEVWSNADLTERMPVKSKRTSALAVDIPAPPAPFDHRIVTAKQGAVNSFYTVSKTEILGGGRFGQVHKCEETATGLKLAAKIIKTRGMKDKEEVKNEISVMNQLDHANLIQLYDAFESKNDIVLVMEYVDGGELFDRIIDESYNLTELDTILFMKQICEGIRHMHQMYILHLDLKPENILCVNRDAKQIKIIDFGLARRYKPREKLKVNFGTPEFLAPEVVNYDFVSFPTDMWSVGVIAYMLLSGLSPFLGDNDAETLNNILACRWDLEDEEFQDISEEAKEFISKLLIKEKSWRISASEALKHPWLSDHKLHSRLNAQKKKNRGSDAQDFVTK
Chain of LATS2 (Q9NRM7 whole entry): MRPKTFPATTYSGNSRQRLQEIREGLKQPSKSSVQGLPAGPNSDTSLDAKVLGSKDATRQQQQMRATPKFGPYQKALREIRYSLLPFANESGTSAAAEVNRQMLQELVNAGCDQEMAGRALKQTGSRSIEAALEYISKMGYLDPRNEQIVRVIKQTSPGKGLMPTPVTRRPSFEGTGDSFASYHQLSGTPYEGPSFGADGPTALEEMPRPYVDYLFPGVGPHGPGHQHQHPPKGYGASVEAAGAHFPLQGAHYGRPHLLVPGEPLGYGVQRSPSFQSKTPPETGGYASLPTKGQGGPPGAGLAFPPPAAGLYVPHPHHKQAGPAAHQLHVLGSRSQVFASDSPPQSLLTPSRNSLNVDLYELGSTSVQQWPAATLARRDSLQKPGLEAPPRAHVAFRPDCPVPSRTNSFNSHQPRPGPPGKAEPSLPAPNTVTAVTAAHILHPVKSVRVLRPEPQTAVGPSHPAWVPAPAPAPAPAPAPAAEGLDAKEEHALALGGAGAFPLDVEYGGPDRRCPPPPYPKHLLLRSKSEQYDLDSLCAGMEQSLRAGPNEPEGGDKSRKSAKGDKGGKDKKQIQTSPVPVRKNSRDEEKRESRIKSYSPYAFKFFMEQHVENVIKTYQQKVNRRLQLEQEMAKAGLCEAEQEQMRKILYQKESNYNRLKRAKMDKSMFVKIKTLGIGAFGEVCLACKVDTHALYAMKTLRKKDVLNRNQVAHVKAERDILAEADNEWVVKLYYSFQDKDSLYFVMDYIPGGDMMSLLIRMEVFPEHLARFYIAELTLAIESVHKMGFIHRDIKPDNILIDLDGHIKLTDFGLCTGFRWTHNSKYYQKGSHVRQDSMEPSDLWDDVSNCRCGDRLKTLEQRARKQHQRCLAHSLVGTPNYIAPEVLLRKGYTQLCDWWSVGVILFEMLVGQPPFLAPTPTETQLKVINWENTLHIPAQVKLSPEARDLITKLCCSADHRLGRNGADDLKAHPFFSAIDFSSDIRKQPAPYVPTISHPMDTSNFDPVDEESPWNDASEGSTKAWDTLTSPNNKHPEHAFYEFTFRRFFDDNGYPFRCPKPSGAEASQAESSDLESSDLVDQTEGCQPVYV
Chain of KSR2 (Q6VAB6 whole entry): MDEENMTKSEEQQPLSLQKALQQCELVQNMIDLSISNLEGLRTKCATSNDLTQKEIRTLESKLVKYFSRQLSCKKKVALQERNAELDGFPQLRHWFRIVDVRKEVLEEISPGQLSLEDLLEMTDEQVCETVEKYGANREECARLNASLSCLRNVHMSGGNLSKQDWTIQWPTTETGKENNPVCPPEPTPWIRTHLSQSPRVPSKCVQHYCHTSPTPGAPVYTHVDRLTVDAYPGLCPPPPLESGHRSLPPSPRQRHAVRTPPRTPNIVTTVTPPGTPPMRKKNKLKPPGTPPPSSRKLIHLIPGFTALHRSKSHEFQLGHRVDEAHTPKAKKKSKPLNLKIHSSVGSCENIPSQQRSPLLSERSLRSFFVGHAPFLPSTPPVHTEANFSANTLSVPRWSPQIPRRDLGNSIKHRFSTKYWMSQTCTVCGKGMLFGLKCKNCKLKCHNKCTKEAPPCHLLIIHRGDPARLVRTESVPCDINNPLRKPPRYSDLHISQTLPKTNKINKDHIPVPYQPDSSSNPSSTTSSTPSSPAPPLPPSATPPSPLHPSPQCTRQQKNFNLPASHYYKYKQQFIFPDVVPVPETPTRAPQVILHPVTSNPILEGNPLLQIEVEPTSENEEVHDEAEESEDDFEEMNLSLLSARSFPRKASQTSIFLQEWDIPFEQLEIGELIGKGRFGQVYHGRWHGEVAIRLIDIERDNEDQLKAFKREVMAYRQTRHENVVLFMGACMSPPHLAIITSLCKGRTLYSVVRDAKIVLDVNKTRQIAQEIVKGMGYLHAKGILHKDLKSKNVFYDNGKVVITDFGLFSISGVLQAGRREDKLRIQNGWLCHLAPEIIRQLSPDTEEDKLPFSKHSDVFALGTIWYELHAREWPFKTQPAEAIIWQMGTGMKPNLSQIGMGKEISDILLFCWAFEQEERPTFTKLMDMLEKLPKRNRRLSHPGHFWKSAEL
Chain of LIMK1 (P53667 whole entry): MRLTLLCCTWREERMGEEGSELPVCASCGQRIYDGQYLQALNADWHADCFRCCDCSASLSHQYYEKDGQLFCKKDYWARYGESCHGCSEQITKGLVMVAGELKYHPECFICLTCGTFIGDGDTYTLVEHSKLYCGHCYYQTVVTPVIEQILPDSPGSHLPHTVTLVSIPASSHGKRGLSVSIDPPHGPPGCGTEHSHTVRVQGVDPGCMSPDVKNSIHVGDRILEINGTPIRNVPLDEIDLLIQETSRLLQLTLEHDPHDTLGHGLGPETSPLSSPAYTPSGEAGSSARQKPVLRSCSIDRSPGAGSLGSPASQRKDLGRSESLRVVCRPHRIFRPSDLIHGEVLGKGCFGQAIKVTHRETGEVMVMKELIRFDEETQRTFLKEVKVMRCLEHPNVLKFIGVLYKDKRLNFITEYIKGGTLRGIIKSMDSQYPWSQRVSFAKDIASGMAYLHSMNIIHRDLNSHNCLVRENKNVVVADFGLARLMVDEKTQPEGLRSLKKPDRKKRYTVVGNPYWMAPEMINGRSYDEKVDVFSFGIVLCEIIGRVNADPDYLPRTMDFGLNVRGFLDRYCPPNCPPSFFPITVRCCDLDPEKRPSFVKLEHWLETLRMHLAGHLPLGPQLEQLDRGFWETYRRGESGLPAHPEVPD
Chain of CSK (P41240 whole entry): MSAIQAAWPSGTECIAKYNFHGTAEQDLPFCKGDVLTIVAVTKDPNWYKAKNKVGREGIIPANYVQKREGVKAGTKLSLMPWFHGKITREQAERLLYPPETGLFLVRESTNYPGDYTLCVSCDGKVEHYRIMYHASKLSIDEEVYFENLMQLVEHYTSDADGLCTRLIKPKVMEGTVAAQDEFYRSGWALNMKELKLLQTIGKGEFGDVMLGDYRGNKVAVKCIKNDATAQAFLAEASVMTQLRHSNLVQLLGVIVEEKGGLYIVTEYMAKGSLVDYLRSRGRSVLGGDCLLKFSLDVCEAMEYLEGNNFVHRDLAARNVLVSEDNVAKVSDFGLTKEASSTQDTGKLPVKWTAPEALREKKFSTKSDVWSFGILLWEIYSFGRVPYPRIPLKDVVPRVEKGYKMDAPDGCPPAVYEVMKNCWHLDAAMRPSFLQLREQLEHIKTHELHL
Chain of MYO3B (Q8WXR4 whole entry): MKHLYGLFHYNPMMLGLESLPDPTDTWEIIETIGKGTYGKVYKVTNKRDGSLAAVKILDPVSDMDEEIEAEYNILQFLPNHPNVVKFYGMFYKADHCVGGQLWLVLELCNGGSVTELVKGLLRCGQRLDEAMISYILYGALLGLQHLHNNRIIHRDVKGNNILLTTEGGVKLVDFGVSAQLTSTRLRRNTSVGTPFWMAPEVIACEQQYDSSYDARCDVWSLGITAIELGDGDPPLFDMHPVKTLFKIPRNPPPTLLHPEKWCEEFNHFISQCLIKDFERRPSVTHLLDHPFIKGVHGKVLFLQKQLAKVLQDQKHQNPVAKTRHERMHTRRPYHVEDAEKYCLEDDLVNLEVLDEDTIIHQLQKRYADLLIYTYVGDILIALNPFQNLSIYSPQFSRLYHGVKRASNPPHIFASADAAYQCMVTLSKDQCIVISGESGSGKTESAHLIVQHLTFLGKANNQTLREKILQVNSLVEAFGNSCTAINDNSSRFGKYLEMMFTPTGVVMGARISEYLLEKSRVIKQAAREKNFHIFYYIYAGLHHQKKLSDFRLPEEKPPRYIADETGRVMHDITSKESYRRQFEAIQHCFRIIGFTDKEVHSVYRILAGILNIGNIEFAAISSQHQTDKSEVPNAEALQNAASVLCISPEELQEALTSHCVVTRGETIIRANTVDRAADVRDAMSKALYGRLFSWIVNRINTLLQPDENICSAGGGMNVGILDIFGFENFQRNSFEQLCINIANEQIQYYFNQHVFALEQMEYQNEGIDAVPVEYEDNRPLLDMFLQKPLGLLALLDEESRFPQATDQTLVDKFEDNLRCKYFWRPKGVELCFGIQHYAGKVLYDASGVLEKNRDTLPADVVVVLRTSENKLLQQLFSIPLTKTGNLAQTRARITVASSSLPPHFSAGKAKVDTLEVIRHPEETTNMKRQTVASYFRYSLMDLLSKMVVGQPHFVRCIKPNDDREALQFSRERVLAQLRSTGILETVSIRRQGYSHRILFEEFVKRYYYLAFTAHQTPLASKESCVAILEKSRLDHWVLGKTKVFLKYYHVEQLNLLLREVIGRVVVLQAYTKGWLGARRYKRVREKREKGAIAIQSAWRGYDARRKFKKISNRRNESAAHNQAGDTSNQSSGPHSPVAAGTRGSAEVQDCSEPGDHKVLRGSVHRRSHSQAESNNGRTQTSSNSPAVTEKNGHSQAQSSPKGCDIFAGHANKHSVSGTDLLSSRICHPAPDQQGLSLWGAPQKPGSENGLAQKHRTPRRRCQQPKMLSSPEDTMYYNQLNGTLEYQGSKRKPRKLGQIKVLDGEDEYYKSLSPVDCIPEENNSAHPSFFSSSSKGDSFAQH

SMILES: C=CC(=O)N1CCC[C@@H](n2nc(-c3ccc(Oc4ccccc4)cc3)c3c(N)ncnc32)C1 [Ibrutinib]
- 1 µM GBD00276 (ibrutinib), % inhibition [1]: 56.77%
- 1 µM GBD00276 (ibrutinib), % inhibition [2]: 7.114%
- 1 µM GBD00276 (ibrutinib), % inhibition [3]: -32.13%
- 1 µM GBD00276 (ibrutinib), % inhibition [4]: 7.258%
- 1 µM GBD00276 (ibrutinib), % inhibition [5]: -3.326%
- 1 µM GBD00276 (ibrutinib), % inhibition [6]: 12.3%
- 1 µM GBD00276 (ibrutinib), % inhibition [7]: -54.44%
- 1 µM GBD00276 (ibrutinib), % inhibition [8]: 4.583%
- 1 µM GBD00276 (ibrutinib), % inhibition [9]: 3.265%
- 1 µM GBD00276 (ibrutinib), % inhibition [10]: -1.079%
- 1 µM GBD00276 (ibrutinib), % inhibition [11]: 61.63%
- 1 µM GBD00276 (ibrutinib), % inhibition [12]: -1.464%
- 1 µM GBD00276 (ibrutinib), % inhibition [13]: 6.848%
- 1 µM GBD00276 (ibrutinib), % inhibition [14]: 42.82%
- 1 µM GBD00276 (ibrutinib), % inhibition [15]: -56.63%
- 1 µM GBD00276 (ibrutinib), % inhibition [16]: 9.751%
- 1 µM GBD00276 (ibrutinib), % inhibition [17]: 7.214%
- 1 µM GBD00276 (ibrutinib), % inhibition [18]: -6.252%
- 1 µM GBD00276 (ibrutinib), % inhibition [19]: -3.047%
- 1 µM GBD00276 (ibrutinib), % inhibition [20]: -2.74%
- 1 µM GBD00276 (ibrutinib), % inhibition [21]: 30.61%
- 1 µM GBD00276 (ibrutinib), % inhibition [22]: 2.418%
- 1 µM GBD00276 (ibrutinib), % inhibition [23]: 6.189%
- 1 µM GBD00276 (ibrutinib), % inhibition [24]: -16.35%
- 1 µM GBD00276 (ibrutinib), % inhibition [25]: 19.49%
- 1 µM GBD00276 (ibrutinib), % inhibition [26]: 9.099%
- 1 µM GBD00276 (ibrutinib), % inhibition [27]: 15.99%
- 1 µM GBD00276 (ibrutinib), % inhibition [28]: -5.63%
- 1 µM GBD00276 (ibrutinib), % inhibition [29]: 0.5426%
- 1 µM GBD00276 (ibrutinib), % inhibition [30]: 81.42%
- 1 µM GBD00276 (ibrutinib), % inhibition [31]: -23.1%
- 1 µM GBD00276 (ibrutinib), % inhibition [32]: 10.92%
- 1 µM GBD00276 (ibrutinib), % inhibition [33]: -9.805%
- 1 µM GBD00276 (ibrutinib), % inhibition [34]: 11.03%
- 1 µM GBD00276 (ibrutinib), % inhibition [35]: -6.849%
- 1 µM GBD00276 (ibrutinib), % inhibition [36]: -33.95%
- 1 µM GBD00276 (ibrutinib), % inhibition [37]: 6.19%
- 1 µM GBD00276 (ibrutinib), % inhibition [38]: 12.02%
- 1 µM GBD00276 (ibrutinib), % inhibition [39]: 0.2657%
